Measurements published in publication PMC4841544, “Molecular Basis of Ligand-Dependent Regulation of NadR, the Transcriptional Repressor of Meningococcal Virulence Factor NadA” (PLoS Pathogens, 2016).

Assays:
Type in all cases: binding
[1] = target: T1, NadR (Neisseria adhesin A Regulator) (Neisseria meningitidis, UniProt Q7DD70); experiment: SPR steady-state; DSC (ΔTm […] °C); parameters: gene NMB1843; NadR residues M1-S146, His-tag removed by thrombin (149 residues)
[2] = target: T1, NadR (Neisseria adhesin A Regulator); experiment: SPR steady-state; DSC (ΔTm […] °C); parameters: gene NMB1843; NadR residues M1-S146, His-tag removed by thrombin (149 residues); remark: listed apart in the source
[3] = target: T1, NadR (Neisseria adhesin A Regulator); experiment: SPR steady-state; DSC; 1H-15N TROSY-HSQC NMR; parameters: gene NMB1843; NadR residues M1-S146, His-tag removed by thrombin (149 residues); SeMet derivative for the crystal

T1 sequence (Q7DD70 entry or part of it): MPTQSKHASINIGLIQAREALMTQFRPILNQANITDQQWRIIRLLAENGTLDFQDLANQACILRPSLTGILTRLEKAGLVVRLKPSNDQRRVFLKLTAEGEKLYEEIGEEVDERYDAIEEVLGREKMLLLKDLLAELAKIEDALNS

Structure (SMILES): O=C(O)Cc1cccc(O)c1 [3-HPA]
- Kd [1]: 2.7 ± 0.1 mM

Structure (SMILES): O=C(O)Cc1ccc(O)c(Cl)c1 [3Cl,4-HPA]
- Kd [2]: 1.1 ± 0.1 mM

Structure (SMILES): O=C(O)Cc1ccc(O)cc1 [4-HPA, 4-hydroxyphenylacetate]
- Kd [3]: 1.5 ± 0.1 mM
